Results from US5556744A, “Methods and compositions for diagnosing and treating certain HIV infected patients” (The Trustees of the University of Pennsylvania, priority 1994, dated 1996).
Entries after “also recorded” stand apart in the source; their conditions may differ.

What was measured:
Parameters in all cases: species or system human
[1] = tested on: maternal serum samples (antibodies); assay: ELISA peptide-binding of maternal sera, expanded peptide collection (Example 5); details: for Binding / reactivity of maternal sera to peptide (in words): Example 5; for Percent of both groups that bound to the peptide: transmission and non-transmission groups
Description: The gp120 and gp41 peptides used in this experiment include peptides 60 [SEQ ID NO:9], 93 [SEQ ID NO:10], 94 [SEQ ID NO:1], 95 [SEQ ID NO:11], 96 [SEQ ID NO:12], 97 [SEQ ID NO:13], 59 [SEQ ID NO:14], 106 [SEQ ID NO:15], 107 [SEQ ID NO:[…]], 1029/33 [SEQ ID NO:2], p18p [SEQ ID NO:17], B138 [SEQ ID NO:3], 466 [SEQ ID NO:4], 497 [SEQ ID NO:18], 117 [SEQ ID NO:19], F560 [SEQ ID NO:20], 35 [SEQ ID NO:5], 120 [SEQ ID NO:21], 121 [SEQ ID NO:22], 123 [SEQ ID NO:23], 36 [SEQ ID NO:24], 40 [SEQ ID NO:25], 41 [SEQ ID NO:26], 649 [SEQ ID NO:6], 53 [SEQ ID NO:7], 55 [SEQ ID NO:27], 128 [SEQ ID NO:28], 129 [SEQ ID NO:29], 132 [SEQ ID NO:30], 57 [SEQ ID NO:8], and 1103/55 [SEQ ID NO:31] from Table 2. These peptides were synthesized based on the same HIV IIIB isolate as were the peptides of Table 2. Alternative designations for these peptides are provided in brackets.
Each of the peptides was at least 85% pure, making them suitable for ELISA analyses. The average length of these peptides was 18 amino acid residues, which allows for a certain degree of local flexibility and conformational folding, thus facilitating detection of antibody species with reactivities to shaped structures.
The maternal serum samples were obtained from the Mothers/Infants Cohort Study described in Example 1. For the ELISA peptide-binding analyses performed essentially as described in Example 3, maternal serum samples were diluted to 1:50 or 1:500 with blocking buffer (1% bovine serum albumin in phosphate-buffered saline containing 0.05% Tween 20). Binding was measured using 10 μg/mL peptide per well and was considered positive if the experimental/control OD450nm ratio was ≥2. Normal (HIV seronegative) human sera were used as controls.

[2] = tested on: maternal sera (antibodies); assay: ELISA peptide-binding of maternal sera (Example 6)
Procedure, shortened: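 Third-trimester maternal sera, from HIV-1 transmitting and non-transmitting mothers, were tested by ELISA against ~16-residue peptides spanning HIV-1 external and transmembrane glycoproteins. Each serum was run with at least 40 peptides, and values are the percentage of sera binding each peptide.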

[3] = tested on: maternal HIV+ sera (antibodies); assay: RIA / ELISA binding of maternal HIV+ sera to gp120 and gp41 peptides (Example 3)
Procedure, shortened: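 Peptides were coated at 10 μg/ml in carbonate buffer pH 9.6 and blocked with 1% BSA. Sera at 1:50 and 1:500 were incubated overnight at 4°C and detected with ¹²⁵I anti-human IgG (RIA) or HRP/TMB at OD450 (ELISA). Specific binding was taken as peptide minus no-peptide wells, scored as a ratio to normal human serum.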

[4] = Serum No. 1, Non-Transmission Group
[5] = Serum No. 2, Non-Transmission Group
[6] = Serum No. 3, Non-Transmission Group
[7] = Serum No. 4, Transmission Group
[8] = Serum No. 5, Transmission Group
[9] = Serum No. 6, Non-Transmission Group
[10] = Serum No. 7, Non-Transmission Group
[11] = Serum No. 8, Non-Transmission Group
[12] = Serum No. 9, Non-Transmission Group
[13] = Serum No. 10, Transmission Group
[14] = Serum No. 11, Non-Transmission Group
[15] = Serum No. 12, Non-Transmission Group
[16] = Serum No. 13, Transmission Group
[17] = Serum No. 14, Transmission Group
[18] = Serum No. 15, Transmission Group
[19] = Serum No. 16, Non-Transmission Group
[20] = Serum No. 17, Non-Transmission Group
[21] = Serum No. 18, Non-Transmission Group
[22] = Serum No. 19, Transmission Group
[23] = Serum No. 20, Non-Transmission Group

Row | Substance | Binding / reactivity of maternal sera to peptide (in words) [1] | Percent of both groups that bound to the peptide [1] | Binding of maternal HIV+ serum to peptide (sera/NHS ratio) [3, 4] | Binding of maternal HIV+ serum to peptide (sera/NHS ratio) [3, 5] | Binding of maternal HIV+ serum to peptide (sera/NHS ratio) [3, 6] | Binding of maternal HIV+ serum to peptide (sera/NHS ratio) [3, 7] | Binding of maternal HIV+ serum to peptide (sera/NHS ratio) [3, 8] | Binding of maternal HIV+ serum to peptide (sera/NHS ratio) [3, 9] | Binding of maternal HIV+ serum to peptide (sera/NHS ratio) [3, 10] | Binding of maternal HIV+ serum to peptide (sera/NHS ratio) [3, 11] | Binding of maternal HIV+ serum to peptide (sera/NHS ratio) [3, 12] | Binding of maternal HIV+ serum to peptide (sera/NHS ratio) [3, 13] | Binding of maternal HIV+ serum to peptide (sera/NHS ratio) [3, 14] | Binding of maternal HIV+ serum to peptide (sera/NHS ratio) [3, 15] | Binding of maternal HIV+ serum to peptide (sera/NHS ratio) [3, 16] | Binding of maternal HIV+ serum to peptide (sera/NHS ratio) [3, 17] | Binding of maternal HIV+ serum to peptide (sera/NHS ratio) [3, 18] | Binding of maternal HIV+ serum to peptide (sera/NHS ratio) [3, 19] | Binding of maternal HIV+ serum to peptide (sera/NHS ratio) [3, 20] | Binding of maternal HIV+ serum to peptide (sera/NHS ratio) [3, 21] | also measured
1 | 56: gp41 peptide, amino acids 747-767, HIV strain IIIB, SEQ ID NO: 156 (RLVNGSLALIWDDLRSLCLFS) [Peptide 56] | recognized by the transmission group | more than 50% | – | – | – | – | – | – | – | – | – | – | – | – | – | – | – | – | – | – | Number of Non-Transmitters which bound to peptide ([2]; Non-Transmitters, N = 12): 0; Percent of Non-Transmitters which bound to peptide ([2]; Non-Transmitters, N = 12): 0%; Number of Transmitters which bound to peptide ([2]; Transmitters, N = 4): 0; Percent of Transmitters which bound to peptide ([2]; Transmitters, N = 4): 0%
2 | LAVERYLKDQQLLGI [Peptide 121] | recognized by the transmission group | – | ++ (which value is greater than 3) | - (specific OD450 or cpm of sera sample binding to peptide divided by the specific OD450 or cpm of NHS sample binding to peptide, which value is less than 2) | - (specific OD450 or cpm of sera sample binding to peptide divided by the specific OD450 or cpm of NHS sample binding to peptide, which value is less than 2) | - (specific OD450 or cpm of sera sample binding to peptide divided by the specific OD450 or cpm of NHS sample binding to peptide, which value is less than 2) | - (specific OD450 or cpm of sera sample binding to peptide divided by the specific OD450 or cpm of NHS sample binding to peptide, which value is less than 2) | ++ (which value is greater than 3) | - (specific OD450 or cpm of sera sample binding to peptide divided by the specific OD450 or cpm of NHS sample binding to peptide, which value is less than 2) | - (specific OD450 or cpm of sera sample binding to peptide divided by the specific OD450 or cpm of NHS sample binding to peptide, which value is less than 2) | - (specific OD450 or cpm of sera sample binding to peptide divided by the specific OD450 or cpm of NHS sample binding to peptide, which value is less than 2) | - (specific OD450 or cpm of sera sample binding to peptide divided by the specific OD450 or cpm of NHS sample binding to peptide, which value is less than 2) | - (specific OD450 or cpm of sera sample binding to peptide divided by the specific OD450 or cpm of NHS sample binding to peptide, which value is less than 2) | - (specific OD450 or cpm of sera sample binding to peptide divided by the specific OD450 or cpm of NHS sample binding to peptide, which value is less than 2) | - (specific OD450 or cpm of sera sample binding to peptide divided by the specific OD450 or cpm of NHS sample binding to peptide, which value is less than 2) | ++ (which value is greater than 3) | ++ (which value is greater than 3) | ++ (which value is greater than 3) | ++ (which value is greater than 3) | ++ (which value is greater than 3) | Binding of maternal HIV+ serum to peptide (sera/NHS ratio) [3, 22]: - (specific OD450 or cpm of sera sample binding to peptide divided by the specific OD450 or cpm of NHS sample binding to peptide, which value is less than 2); Binding of maternal HIV+ serum to peptide (sera/NHS ratio) [3, 23]: - (specific OD450 or cpm of sera sample binding to peptide divided by the specific OD450 or cpm of NHS sample binding to peptide, which value is less than 2); Percent of the maternal serum samples that bound to the peptide ([3]; all 20 samples): 35%
3 | LGIWGCSGKLIC [Peptide 41-2] | Virtually all samples reacted; also recorded: recognized by the transmission group | 90% | – | – | – | – | – | – | – | – | – | – | – | – | – | – | – | – | – | – | –
4 | THACVPTDPNPQEVV [Peptide 95] | Differences in binding between the transmission and non-transmission groups are noted | – | + (which value is between 2 to 3) | - (specific OD450 or cpm of sera sample binding to peptide divided by the specific OD450 or cpm of NHS sample binding to peptide, which value is less than 2) | - (specific OD450 or cpm of sera sample binding to peptide divided by the specific OD450 or cpm of NHS sample binding to peptide, which value is less than 2) | - (specific OD450 or cpm of sera sample binding to peptide divided by the specific OD450 or cpm of NHS sample binding to peptide, which value is less than 2) | - (specific OD450 or cpm of sera sample binding to peptide divided by the specific OD450 or cpm of NHS sample binding to peptide, which value is less than 2) | - (specific OD450 or cpm of sera sample binding to peptide divided by the specific OD450 or cpm of NHS sample binding to peptide, which value is less than 2) | - (specific OD450 or cpm of sera sample binding to peptide divided by the specific OD450 or cpm of NHS sample binding to peptide, which value is less than 2) | - (specific OD450 or cpm of sera sample binding to peptide divided by the specific OD450 or cpm of NHS sample binding to peptide, which value is less than 2) | - (specific OD450 or cpm of sera sample binding to peptide divided by the specific OD450 or cpm of NHS sample binding to peptide, which value is less than 2) | - (specific OD450 or cpm of sera sample binding to peptide divided by the specific OD450 or cpm of NHS sample binding to peptide, which value is less than 2) | + (which value is between 2 to 3) | - (specific OD450 or cpm of sera sample binding to peptide divided by the specific OD450 or cpm of NHS sample binding to peptide, which value is less than 2) | - (specific OD450 or cpm of sera sample binding to peptide divided by the specific OD450 or cpm of NHS sample binding to peptide, which value is less than 2) | ++ (which value is greater than 3) | - (specific OD450 or cpm of sera sample binding to peptide divided by the specific OD450 or cpm of NHS sample binding to peptide, which value is less than 2) | - (specific OD450 or cpm of sera sample binding to peptide divided by the specific OD450 or cpm of NHS sample binding to peptide, which value is less than 2) | - (specific OD450 or cpm of sera sample binding to peptide divided by the specific OD450 or cpm of NHS sample binding to peptide, which value is less than 2) | - (specific OD450 or cpm of sera sample binding to peptide divided by the specific OD450 or cpm of NHS sample binding to peptide, which value is less than 2) | Number of maternal sera binding to peptide ([3]; 20 maternal sera): three; Binding of maternal sera to peptide (in words) ([3]; Example 3): Several maternal serum samples had reactivity; Binding of maternal HIV+ serum to peptide (sera/NHS ratio) [3, 22]: - (specific OD450 or cpm of sera sample binding to peptide divided by the specific OD450 or cpm of NHS sample binding to peptide, which value is less than 2); Binding of maternal HIV+ serum to peptide (sera/NHS ratio) [3, 23]: - (specific OD450 or cpm of sera sample binding to peptide divided by the specific OD450 or cpm of NHS sample binding to peptide, which value is less than 2); Number of binding maternal sera from the transmission group ([3]; vertical transmission group (7 sera)): one
